{"source": "paper PMC9239083", "about": "“C6 Hydroxymethyl-Substituted Carbapenem MA-1-206 Inhibits the Major Acinetobacter baumannii Carbapenemase OXA-23 by Impeding Deacylation” (mBio, 2022)", "biological_target": "OXA-23 (Acinetobacter baumannii, UniProt Q9L4P2)", "sequence (Q9L4P2 18-273)": "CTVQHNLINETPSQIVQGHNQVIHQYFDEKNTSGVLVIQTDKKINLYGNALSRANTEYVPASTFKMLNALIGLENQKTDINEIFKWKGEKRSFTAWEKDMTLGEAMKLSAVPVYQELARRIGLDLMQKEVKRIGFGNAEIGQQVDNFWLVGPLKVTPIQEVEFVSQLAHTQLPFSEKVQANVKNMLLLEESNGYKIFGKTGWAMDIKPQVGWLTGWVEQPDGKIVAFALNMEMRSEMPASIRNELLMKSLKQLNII", "assay": "X-ray crystal structures (seven soak time points); Ki by nitrocefin competition kinetics with purified enzyme", "assay_type": "biochemical", "text": "X-ray crystal structures (seven soak time points); Ki by nitrocefin competition kinetics with purified enzyme on OXA-23 | The compound is covalently attached to the Ser79 side chain and anchored by six hydrogen bonds."}
{"smiles": "CN(C)C(=O)[C@@H]1C[C@H](SC2=C(C(=O)O)N3C(=O)[C@H](CO)[C@H]3C2)CN1", "note": "[MA-1-206]", "values": [{"measurement": "Ki", "result": "26 ± 2", "unit": "nM"}]}
